Measured values as given in patent US20260240768A1, “PHARMACEUTICAL COMPOSITION COMPRISING NFL-TBS40-63 PEPTIDE, VARIANTS OR SALTS THEREOF AND ALANINE” (GLIOCURE, priority 2022, published 2026).
Where “and” joins values, the source holds several entries; their conditions need not be identical. Equal values may be shown once. Entries after “also recorded” stand apart in the source; their conditions may differ. Read-outs that look alike come from different tables or passages of the source. Where a SMILES comes first, the peptide text is derived from it. The star is where a group is joined. Biotin = O=C1N[C@H]2[C@H](CS[C@H]2CCCCC(=O)*)N1

How the values were obtained:
[1] = Clarity test - degree of opalescence; format: physicochemical
Protocol: For preparations where the NFL-TBS40-63 peptide appeared to be visually dissolved (following the visual dissolution test), the clarity (opalescence) of the preparation was assessed, via visual inspection after placing the colourless glass tube close to a white light source. The degree of opalescence was a very useful predictor of a given preparation's ability to pass or block a sterilizing filter.

[2] = test system: neuroblastoma and glioblastoma cell lines; details: WO 2011/073207 and Bocquet et al. (2009); cited from earlier work
[3] = test system: b.End3 murine endothelial cells; test: MTS viability assay (mitochondrial activity); format: cell-based; details: 72 hours, peptide in Clinic vehicle F28C1 compared with Glucose 5%
Protocol: (§1) Cells were seeded in 96-well plates at 1,000 per well for b.End3 murine endothelial cells and F98 rat GBM cells, and 5,000 cells and U-87 MG human GBM cells, and incubated for 24 hours at 37° C. and 5% CO2. Then, the culture media was removed and cells were treated for 72 hours at 37° C. and 5% CO2 with increasing concentrations (25, 50, 100 and 200 μM) of GC01-G5% (NFL-TBS40-63 peptide (GC01) partially solubilized with 5% glucose) or GC01.1 (NFL-TBS40-63 peptide (GC01) fully solubilized in the formulation of the invention F28C1), or with 1 μg/mL of colchicine, or the 5% glucose solution and the Clinic vehicle, diluted in fresh media. Cell viability was measured using the MTS viability assay (ab197010-Abcam; Paris, France). After rinsing the cells with 1×DPBS (Dulbecco's Phosphate Buffered Saline-Gibco; Dardilly, France), 20 μL of MTS reagent was added to each well for 2 hours. The number of living cells is directly proportional to the absorbance measured by the amount of light absorbance at 490 nm in a SpectraMax M2 multi-scanning spectrophotometer (Molecular Devices; San Jose, California, USA).

[4] = test system: U-87 MG human GBM cells; test: MTS viability assay (mitochondrial activity); format: cell-based; details: 72 hours, peptide in Clinic vehicle F28C1 compared with Glucose 5%
Protocol: as §1

[5] = test system: b.End3 murine endothelial cells; test: Immunocytochemistry of tubulin; format: cell-based; details: 100 μM, 48 hours
Protocol: (§2) To visualize the treatment internalization, 20,000 and 35,000 cells per well for b.End3 murine endothelial cells and U-87 MG human GBM cells, respectively, were seeded in 24-well plates containing one coverslip previously coated with poly (d) lysine 0.1 mg/ml per well and washed three times with 1×DPBS (Sigma-Aldrich; Saint-Louis, USA) and incubated for 24 hours at 37° C. and 5% CO2. Then, the cells were incubated with 100 μM of GC01-G5% (NFL-TBS40-63 peptide (GC01) peptide partially solubilized with 5% glucose) or 100 μM of GC01.1 (NFL-TBS40-63 peptide (GC01) fully solubilized in the formulation of the invention F28C1), or with 1 μg/mL of colchicine for 48 hours at 37° C. At the end of the incubation time, cells were washed three times with 1×DPBS and fixed with 4% paraformaldehyde (15714-Delta microscopies; Mauressac, France) for 10 min at room temperature. Then, treated cells were permeabilized with 0.2% triton X-100 (T9284—Sigma-Aldrich; Saint-Louis, USA) for 10 min, and blocked with 5% bovine serum albumin (A7030—Sigma-Aldrich; Saint-Louis, USA) for 45 min at room temperature. Cells were co-incubated with a mouse anti-a tubulin (ab7750-Abcam; Paris, France) and a rabbit anti-βIII tubulin antibodies at 1:250 (T2200—Sigma-Aldrich; Saint-Louis, USA) overnight at 4° C. […]

[6] = test system: U-87 MG human GBM cells; test: Immunocytochemistry of tubulin; format: cell-based; details: 100 μM, 48 hours
Protocol: as §2

[7] = Filtration test (0.2 μm filter); format: physicochemical; details: for effect on the presence of fibrils in NFL-TBS40-63 formulation: amino acid added instead of alanine
Protocol: Several formulations (containing NFL-TBS40-63 and various buffers, solubilizing and osmolarity adjusting agents) were tested for their aptitude to pass a 0.2 μm filter. […] The ease of filtration (manual pressure required) was recorded.
For grade 1 formulations, further filtration tests were performed with higher volumes of the test formulation, and a deliberately small filter area size, e.g. a 25 mm diameter with pores of 0.2 μm with 100 ml of the test formulation.

[8] = Scanning Electron Microscopy (SEM) of dry powder; format: physicochemical; details: Lot AW18189D and Lot HF44004B
Protocol: Scanning Electron Microscopy of NFL-TBS40-63 peptide dry powder was performed using an Jeol 6301F instrument. In brief, NFL-TBS40-63 peptide was lightly sprinkled onto double sided tape fixed to a SEM stub. Excess powder was shaken/tapped off, so as to leave a very thin layer of powder on the stub, which was then sputter coated with an ~10 nm layer of platinum, prior to observation. This technique allows visualization of the fibrils in the dry NFL-TBS40-63 peptide powder.

[9] = Visual dissolution test / solubility of the peptide; format: physicochemical
[10] = Transmission Electron Microscopy (TEM) of fibrils; format: physicochemical
Protocol: Transmission Electron Microscopy imaging of various formulations was performed using a Jeol JEM-1400 instrument. Sample preparation was as follows: one drop of the liquid to be examined was deposited onto a TEM gird and allowed to settle for ~1 minute. Excess liquid was then absorbed with blotting paper, and one drop of a 2% solution of uranyl acetate was deposited on the grid. After ~2 minutes the excess solution was absorbed with blotting paper, and the grid was rinsed twice, using with a drop of water each time. The grid was then dried, prior to examination in the TEM. This technique allowed visualization of the fibrils of NFL-TBS40-63 peptide in the various formulations and in water.

[11] = test system: U-87 MG cells; test: Calcein/PI flow cytometry after passage through the endothelial monolayer; format: cell-based, human; details: Transwell conditions + U-87 MG cells, 24 h treatment + 48 hours
Protocol: After 24 hours of treatment, the endothelial cell monolayer was removed, and the U-87 MG cells were incubated at 37° C. for an additional 48 hours. At this time, U-87 MG cells were collected as previously described in section 1.4. To evaluate cell viability were stained with 1 μM of Calcein green (Thermo Fisher Scientific; Massachusetts, USA) for 30 min at room temperature in the dark. Then re-suspended in Propidium Iodide and analyzed by flow cytometry. 10,000 cells were measured for each experiment.

[12] = Dynamic Light Scattering (DLS); format: physicochemical
Protocol: FIG. 4A-C: DLS graphs showing the effect of the heating of the formulation containing L-alanine at different temperatures before adding NFL-TBS40-63 peptide followed by mixing for 1 h30 at A. room temperature (RT); B. 30-35° C., and C. 40-45° C. […] Low attenuator values (e.g. ≤8) indicate that there were substantially more particles in the sample.
Dynamic Light Scattering (DLS) measurements were performed on the several formulations of grade 1 and 2 using a Malvern Nano-S instrument. Although the technique is not quantitative, it provided important information on the relative size of the objects (fibrils) present in the various formulations, throughout out the process of dissolution.
The attenuator value also gives a measure of the quantity of particles present: the higher the attenuator value, the less particles present.

[13] = test system: U-87 MG cells implanted in the brains of BALB/c Nude mice; test: In vivo U-87 MG brain tumor in nude mice, tolerance and MALDI-TOF imaging; details: intravenous injection in the formulation of the invention, 1 hour after the final injection
Protocol: Seven-week-old female Balb/c nude mice (Janvier, France) were housed at the university animal facility (Service Commun d'Animalerie Hospitalo-Universitaire—Université d'Angers, France). Animals had free access to water and food throughout the experiment and their behavior and body weight were constantly monitored. All procedures involving animals, were conducted in accordance with protocols approved by ethical committee of the University of Angers and the regional ethics committee on animal experimentations.
Mice were anesthetized by intraperitoneal injection of a mixture of ketamine 10% (80 mg/kg) and xylazine 2% (10 mg/kg). […] The injection coordinates were 2.1 mm lateral, 0.5 mm posterior from the bregma and 2.5 mm deep from the outer border of the cranium. […] Animals were sacrificed 1 hour after the last injection, and brains were removed and frozen in nitrogen vapors.
The MALDI-TOF MS analysis was performed on a Bruker BIFLEX III mass spectrometer (Bruker Daltonics; Germany) equipped with a nitrogen laser (337 nm wavelength, 3 ns laser pulse duration) with reflection and in the positive ion mode. The MS data were acquired over a mass range of m/z 2714 Da with pixels of 100 μm diameter but the capturing area is of 40 μm per pixel. Data have been normalized by Root Mean Square and the image has been smoothed by reducing background noise. […]

In the case of `CC(C)C[C@H](NC(=O)[C@H](CO)NC(=O)[C@H](CO)NC(=O)[C@H](CO)NC(=O)[C@@H](NC(=O)[C@@H]1CCCN1C(=O)[C@H](C)NC(=O)[C@H](CO)NC(=O)[C@H](Cc1ccc(O)cc1)NC(=O)[C@H](CO)NC(=O)[C@H](CO)NC(=O)[C@H](Cc1ccc(O)cc1)NC(=O)CCCC[C@@H]1SC[C@@H]2NC(=O)N[C@@H]21)C(C)C)C(=O)N[C@@H](CO)C(=O)N[C@H](C(=O)N[C@@H](CCCNC(=N)N)C(=O)N[C@@H](CCCNC(=N)N)C(=O)N[C@@H](CO)C(=O)N[C@@H](Cc1ccc(O)cc1)C(=O)N[C@@H](CO)C(=O)N[C@@H](CO)C(=O)N[C@@H](CO)C(=O)N[C@@H](CO)C(=O)NCC(=O)N[C@@H](CO)C(N)=O)C(C)C` [NFL-TBS40-63 peptide] (Biotin-YSSYSAPVSSSLSVRRSYSSSSGS-NH2; N-terminus and C-terminus assumed), the “opalescence of the solution” value ([1]; F28C1 with 25 mM L-alanine, 1.5 mg/mL peptide) is reported as “slightly opalescent”, the “opalescence of the solution” value ([1]; F28C1 with 50 mM L-alanine, 1.5 mg/ml peptide) is reported as “very slightly opalescent” and the “opalescence of the solution” value ([1]; F28C1 with 112 mM L-alanine, 1.5 mg/ml peptide) is reported as “slightly opalescent”. The “opalescence of the solution” value ([1]; F28C1 with 225 mM L-alanine, 1.5 mg/ml peptide) was “slightly opalescent”, the “opalescence of the solution” value ([1]; F28C1 with 670 mM L-alanine, 0.5 mg/mL peptide) was “slightly opalescent” and the “inhibition of proliferation in vitro” value [2] was “able to inhibit the proliferation”. The “cytotoxicity profile (cell viability, MTS)” value [3] was “retains its properties”, the “cytotoxicity profile (cell viability, MTS)” value [4] was “retains its properties” and the “effect on tubulin (immunostaining)” value [5] was “alteration of tubulin”. For the same compound, the “effect on tubulin (immunostaining)” value [6] was “alteration of tubulin”, the “passage of 0.2 μm sterilizing filter” value ([7]; 1 mg/ml in water) was “very quickly block” and the “behaviour of pre-filter and sterilizing filters” value ([7]; 3 mg/ml in G5% (5% glucose in water for injection)) was “tended to clog up quite quickly”. The filter grade ([7]; F28C1 with 25 mM L-alanine, 1.5 mg/mL peptide, 1 mL, 13 mm 0.2 μm filter) was 2, the filter grade ([7]; F28C1 with 50 mM L-alanine, 1.5 mg/ml peptide, 5 mL, 13 mm 0.2 μm filter) was 1 to 2 and the filter grade ([7]; F28C1 with 112 mM L-alanine, 1.5 mg/ml peptide, 1 mL, 13 mm 0.2 μm filter) was 2. The filter grade ([7]; F28C1 with 225 mM L-alanine, 1.5 mg/ml peptide, 1 mL, 13 mm 0.2 μm filter) was 2 to 3 and 3, the filter grade ([7]; F28C1 with 670 mM L-alanine, 0.5 mg/mL peptide, 13 mm 0.2 μm filter) was 3 and the “sterilizing filtration through 0.2 μm” value ([7]; micronized powder in F28C1, after 0.45 μm pre-filtration) was “successful”. For the same compound, the filter grade ([7]; with no alanine) was 3, the “structures in dry powder by SEM” value [8] was “fibril-like structures” and the “dissolution of the peptide” value ([9]; 3 mg/ml in G5% (5% glucose in water for injection), even after heating 1.5 h at 40 to 45° C.) was “less well dissolved”. The solubility at 2 min ([9]; 50 mM glutamine and 50 mM arginine, read-out: solubility) was less than 800 µg/mL, the precipitation ([9]; in the presence of sodium or potassium ions) was “tends to irreversibly precipitate” and the solubility at 2 min ([9]; in water, read-out: intrinsic aqueous solubility) was less than 2500 µg/mL. The “solubility in commonly used parenteral buffer systems” value ([9]; nearly all commonly used parenteral buffer systems) was “insoluble”, the “number and size of fibrils by TEM” value ([10]; composition containing 50 mM of L-alanine and 1 mg/mL peptide) was “significantly reduced; also recorded: virtually no fibrils were visible” and the “fibrillar structures by TEM” value ([10]; in water, 1 mg/mL and 0.27 mg/ml) was “fibrillar structure; also recorded: fibril structure”. For the same compound, the “length of sub-visible fibrillar structures” value ([10]; self-association) was no more than 2 μm, the “percentage of dead cells” value ([11]; listed as Biot-NFL) was 16.6±5.4% and the “percentage of dead cells” value ([11]; listed as GC01) was 30.1±7.9%. For the same compound, the “DLS single peak, particle size” value ([12]; micronized powder in F28C1, 1.5 hours mixing at ambient temperature (20° C.), prior to pre-filtration) was “around 300 nm”, the DLS attenuator value ([12]; solution F28C heated to 40-45° C. before adding the peptide, mixing 1h30) was 10 and the “peptide in the tumor by MALDI-TOF imaging” value [13] was “accumulation”.

For `CC(C)C[C@H](N)C(=O)O` [L-leucine], the “effect on the presence of fibrils in NFL-TBS40-63 formulation” value (“effect on the presence of fibrils” below) [7] was “did not have any positive effect”.

In the case of `CC[C@H](C)[C@H](N)C(=O)O` [L-isoleucine], the “effect on the presence of fibrils” value [7] is reported as “did not have any positive effect”.

In the case of `CSCC[C@H](N)C(=O)O` [L-methionine], the “effect on the presence of fibrils” value [7] is reported as “did not have any positive effect”.

In the case of `NC(=O)CC[C@H](N)C(=O)O` [L-glutamine], the “effect on the presence of fibrils” value [7] is reported as “did not have any positive effect”.

For `CC(C)[C@H](N)C(=O)O` [L-valine], the “effect on the presence of fibrils” value [7] was “did not have any positive effect”.
